Earlier results as cited in patent publication US12404348B2, “Bifunctional chimeric molecules for labeling of kinases with target binding moieties and methods of use thereof” (The Brigham and Women's Hospital, Inc., priority 2021, dated 2025).

Columns and labels:
[1] = molecular target: T1, PDK1 (Homo sapiens, UniProt O15530)
T1 sequence (O15530 1-556): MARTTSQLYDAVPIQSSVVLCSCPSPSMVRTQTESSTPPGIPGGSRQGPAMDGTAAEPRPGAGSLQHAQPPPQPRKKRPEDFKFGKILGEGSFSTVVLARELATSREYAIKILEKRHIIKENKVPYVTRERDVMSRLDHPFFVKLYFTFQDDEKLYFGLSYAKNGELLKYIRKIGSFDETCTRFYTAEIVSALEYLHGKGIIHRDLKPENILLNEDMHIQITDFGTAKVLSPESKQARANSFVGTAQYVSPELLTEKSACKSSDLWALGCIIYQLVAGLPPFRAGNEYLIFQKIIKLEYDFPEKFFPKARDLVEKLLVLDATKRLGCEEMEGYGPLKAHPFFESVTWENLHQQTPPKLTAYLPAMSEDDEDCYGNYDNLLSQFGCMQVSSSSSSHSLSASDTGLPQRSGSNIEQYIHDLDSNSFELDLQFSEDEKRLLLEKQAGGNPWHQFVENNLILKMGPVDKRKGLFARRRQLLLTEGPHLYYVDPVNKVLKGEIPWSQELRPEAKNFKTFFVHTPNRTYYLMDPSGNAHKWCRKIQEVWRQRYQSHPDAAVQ

[2] = molecular target: T2, Recombinant PKCζ (Homo sapiens, UniProt Q05513)
T2 sequence (Q05513 1-592): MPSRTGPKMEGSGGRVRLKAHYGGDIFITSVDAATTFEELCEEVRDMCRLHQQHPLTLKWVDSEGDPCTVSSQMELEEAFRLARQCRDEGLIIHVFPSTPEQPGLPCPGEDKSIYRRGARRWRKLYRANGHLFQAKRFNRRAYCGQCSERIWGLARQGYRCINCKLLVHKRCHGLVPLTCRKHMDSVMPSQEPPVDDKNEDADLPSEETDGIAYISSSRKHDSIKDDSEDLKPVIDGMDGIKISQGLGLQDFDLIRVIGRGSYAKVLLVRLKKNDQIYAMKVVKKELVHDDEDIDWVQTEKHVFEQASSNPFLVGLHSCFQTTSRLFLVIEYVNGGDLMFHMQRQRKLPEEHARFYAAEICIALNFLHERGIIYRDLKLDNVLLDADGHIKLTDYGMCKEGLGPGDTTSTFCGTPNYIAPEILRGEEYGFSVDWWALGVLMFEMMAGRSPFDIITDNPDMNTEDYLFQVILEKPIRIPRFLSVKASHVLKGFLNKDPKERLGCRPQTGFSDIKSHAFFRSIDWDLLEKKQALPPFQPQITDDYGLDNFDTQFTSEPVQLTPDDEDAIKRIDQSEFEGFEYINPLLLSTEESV

[3] = test system: NF-κB Pathway; details: U(37 cells)
[4] = molecular target: T3, AKT1 (Homo sapiens, UniProt P31749)
[5] = molecular target: T3, AKT1; remark: listed apart in the source
[6] = molecular target: T4, PKCl (Homo sapiens, UniProt P41743)
T4 sequence (P41743 1-596): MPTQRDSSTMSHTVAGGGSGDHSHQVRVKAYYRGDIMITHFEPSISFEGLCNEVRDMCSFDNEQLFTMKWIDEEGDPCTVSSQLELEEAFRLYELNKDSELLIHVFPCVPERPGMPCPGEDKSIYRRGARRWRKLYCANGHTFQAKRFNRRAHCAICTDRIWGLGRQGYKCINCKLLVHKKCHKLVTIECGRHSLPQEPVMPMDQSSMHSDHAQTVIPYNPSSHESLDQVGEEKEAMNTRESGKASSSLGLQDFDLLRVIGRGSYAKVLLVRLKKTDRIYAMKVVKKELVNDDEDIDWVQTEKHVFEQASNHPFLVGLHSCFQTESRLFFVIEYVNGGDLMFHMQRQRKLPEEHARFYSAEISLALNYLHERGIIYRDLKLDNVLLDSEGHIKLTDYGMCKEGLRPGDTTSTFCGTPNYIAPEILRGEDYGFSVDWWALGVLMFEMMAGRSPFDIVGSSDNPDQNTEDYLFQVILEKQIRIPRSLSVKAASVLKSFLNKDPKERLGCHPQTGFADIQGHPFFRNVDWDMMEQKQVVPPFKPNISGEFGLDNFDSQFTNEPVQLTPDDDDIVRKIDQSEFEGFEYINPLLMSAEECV

[7] = molecular target: T1, PDK1; remark: listed apart in the source

T3 sequence (P31749 whole entry): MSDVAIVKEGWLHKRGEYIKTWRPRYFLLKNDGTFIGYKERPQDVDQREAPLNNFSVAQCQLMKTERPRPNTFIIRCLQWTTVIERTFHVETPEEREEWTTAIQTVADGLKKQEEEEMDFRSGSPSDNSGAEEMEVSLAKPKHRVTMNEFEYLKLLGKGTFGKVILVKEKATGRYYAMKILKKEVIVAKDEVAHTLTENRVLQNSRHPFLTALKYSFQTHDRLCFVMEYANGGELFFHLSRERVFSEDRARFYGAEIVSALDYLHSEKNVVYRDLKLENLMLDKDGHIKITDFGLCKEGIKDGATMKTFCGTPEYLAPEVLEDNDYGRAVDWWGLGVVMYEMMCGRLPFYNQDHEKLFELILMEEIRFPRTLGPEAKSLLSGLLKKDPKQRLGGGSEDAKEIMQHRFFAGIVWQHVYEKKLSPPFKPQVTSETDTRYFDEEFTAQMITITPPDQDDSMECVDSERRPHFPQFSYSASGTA

## O=C(O)/C=C(/CCc1ccc(F)cc1)c1ccccc1 [Compound 4Z]
[1]
  Amax: 3.3 fold

## O=C(NOC[C@H](O)CO)c1ccc(F)c(F)c1Nc1ccc(I)cc1F [Mirdametinib]
other
  Sol (pH 6.5): 190 μg/mL

## CC(C)c1ccc(N2N=C(C(C)(C)C)CC2c2ccc(O)cc2)cc1 (stereo not shown) [1f]
[2]
  cell-free assay % inhibin at 62.5 μM: 54.9%

## CC(C)(C)C1=NN(c2ccccc2Cl)C(c2ccc(O)cc2)C1 (stereo not shown) [1l]
[3]
  NF-κB reporter gene assay % inhibin at 5 μM: 23.5%
[2]
  cell-free assay % inhibin at 62.5 μM: 57.1%

## CC(C)(C)c1ccc(-n2c(-c3ccncc3)nc3cccnc32)cc1 [Compound 3f]
[4]
  IC50: 185 µM
[5]
  Akt1 ΔTm: no shift

## CC(C)(C)C1=NN(c2cccc(F)c2)C(c2ccc(O)cc2)C1 (stereo not shown) [1i]
[3]
  NF-κB reporter gene assay % inhibin at 5 μM: 73.5%
[6]
  PKCl % inhibn at 20 μM: 19.3%

## NCc1ccc(-n2c(-c3cccnc3)nc3cccnc32)cc1 [Compound 5b]
[5]
  Akt1 ΔTm: no shift

## CC(C)(C)C1=NN(c2ccc(C(=O)O)cc2)C(c2ccc(O)cc2)C1 (stereo not shown) [1g]
[3]
  NF-κB reporter gene assay % inhibin at 5 μM: 40.7%
[2]
  cell-free assay % inhibin at 62.5 μM: 47.9%

## O=C(NOC[C@@H](O)CO)c1ccc(F)c(F)c1Nc1ccc(I)cc1F [Compound 35]
other
  Sol (pH 6.5): 255, μg/mL

## CC(C)(C)C1=NN(c2ccccc2F)C(c2ccc(O)cc2)C1 (stereo not shown) [1m]
[3]
  NF-κB reporter gene assay % inhibin at 5 μM: 48.7%
[2]
  cell-free assay % inhibin at 62.5 μM: 57.6%

## COc1ccccc1Cn1c(-c2cccnc2N)nc2cc(Br)cnc21 [Compound 3d]
[4]
  IC50: > 300 µM
[5]
  Akt1 ΔTm: no shift

## Nc1ncccc1-c1nc2cccnc2n1-c1cccc(CNC(=O)c2ccccc2)c1 [Compound 8g]
[5]
  Akt1 ΔTm: no shift

## CC(C)(C)C1=NN(c2cccc(C(F)(F)F)c2)C(c2ccc(O)cc2)C1 (stereo not shown) [1j]
[3]
  NF-κB reporter gene assay % inhibin at 5 μM: 89.7%
[3]; read-out: NF-κB reporter gene assay IC50 ± SD
  IC50: 2.7 ± 0.32 µM
[6]
  PKCl % inhibn at 20 μM: 17.0%

## O=C(O)/C=C(\CCc1ccc(-c2ccccc2)cc1)c1ccccc1 [Compound 11E]
[1]
  Amax: n.e.

## Nc1ccc(-n2c(-c3cccnc3N)nc3cccnc32)cc1 [Compound 5d]
[5]
  Akt1 ΔTm: 4.1 °C

## O=C(O)/C=C(/CCc1ccc(Br)cc1)c1ccccc1 [Compound 5Z]
[7]
  ITC Ka: 4.78E4 — M^-1
  ITC TΔS: 3.20 kcal/mol
  ITC ΔG: -6.32 kcal/mol
  ITC ΔH: -3.07 kcal/mol
  ITC ΔH/ΔG: 48.6%
[1]
  Amax: 3.9 fold

## Oc1ccc(C2CC(c3ccccc3O)=NN2c2ccc(Cl)cc2)cc1O (stereo not shown) [4g]
[6]
  PKCl % inhibn at 20 μM: 44.1%

## CC(C)(C)C1=NN(c2ccc(Br)cc2)C(c2ccc(O)cc2)C1 (stereo not shown) [1c]
[3]
  NF-κB reporter gene assay % inhibin at 5 μM: 58.4%

## O=C(O)/C=C(/CCc1ccc2ccccc2c1)c1ccccc1 [Compound 12Z]
[7]
  ITC Ka: 7.26E4 — M^-1
  ITC TΔS: 1.96 kcal/mol
  ITC ΔG: -6.67 kcal/mol
  ITC ΔH: -4.56 kcal/mol
  ITC ΔH/ΔG: 68.3%
[1]
  Amax: 3.5 fold

## Cc1ccc(N2N=C(C(C)(C)C)CC2c2ccc(O)cc2)cc1 (stereo not shown) [1e]
[3]
  NF-κB reporter gene assay % inhibin at 5 μM: 62.9%

## Cc1cccc(N2N=C(C(C)(C)C)CC2c2ccc(O)cc2)c1 (stereo not shown) [1k]
[3]
  NF-κB reporter gene assay % inhibin at 5 μM: 73.7%
[6]
  PKCl % inhibn at 20 μM: 13.9%
